Results as given in patent US20250228858A1, “ANTI-CANCER COMBINATION THERAPY” (Boehringer Ingelheim International GmbH, priority 2023, published 2025).
*1 amine or outer side, *2 acyl side, *3 side chain or, on linkers, in order; H or OH if unused. Where a SMILES comes first, the peptide text is derived from it. [ ]: non-standard residue; d: D form. The star is where a group is joined. Exatecan = CC[C@@]1(O)C(=O)OCc2c1cc1n(c2=O)Cc2c-1nc1cc(F)c(C)c3c1c2[C@@H](N*)CC3; Hexanoyl(6-maleimido) = O=C1C=CC(=O)N1CCCCCC(=O)*; NHCH2OCH2CO = O=C(COCN[*:1])[*:2]

Legend:
[1] = test system: HER2-overexpressing human breast cancer cell line SUM190PT; assay type: in vivo
Experimental: The study is performed in human breast cancer cell line SUM190PT grown as subcutaneous xenografts in NMRI-Foxn1^nu mice. Day 1 was the first day, day 21 the last day of treatment and final day of analysis.
Cells are obtained and cultured as described in Example 8 (see paragraph 8.1.2).
Capecitabine can be purchased from Roche Pharma AG. Capecitabine is suspended with 0.5% Natrosol and administered intragastrally with a volume of 10 ml/kg.
Tumor volumes and side effects are monitored as described in Example 1 (see paragraph 1.1.6), except that control animals are sacrificed when the median tumor volume of the group reaches a size of approximately 540 mm^3.
(§1) The statistical evaluation of the tumor volume and the body weight is conducted on day 21 (last day of the study). Apart from this, statistical analysis was performed as described in Example 1 (see paragraph 1.1.7), with no evaluation of tumor growth after stop of treatment.

[2] = test system: parental NCI-N87 cells; assay: Proliferation assay (CellTiter Glo), parental NCI-N87 cells; assay type: cell-based, human; conditions: 5 days of incubation, in vitro
Experimental: (§2) Per well, 1000 cells are seeded in 40 μL medium in white, sterile 384-well culture plates (TC-treated; PerkinElmer #6007680) and incubated overnight in a humidified incubator at 37° C. and 5% CO2. 0.1% DMSO-control or serial compound dilution in triplicates are added. […] After 5 days of incubation with test compounds, the cells plates are measured upon addition of CellTiter Glo Luminescent Cell Viability Reagent (Promega, #G9243) to assess cell viability. The plates are placed on a shaker for five minutes and additionally incubated for 10 minutes at room temperature to induce cell lysis and to stabilize the luminescent signal. The luminescent signal of each well is measured in an EnSpire Multilabel Plate Reader 658 (PerkinElmer). The dose response curves are fit and visualized using Boehringer Ingelheim's proprietary software MegaLab and PRISM (GraphPad Inc.).

[3] = test system: T-DXd-resistant NCI-N87 cells; assay: Proliferation assay (CellTiter Glo), T-DXd resistant NCI-N87 cells; assay type: cell-based, human; conditions: 5 days of incubation, in vitro
Experimental: as §2

[4] = test system: HER2-overexpressing human NSCLC cell line Calu-3; assay: Calu-3 subcutaneous xenograft, zongertinib with trastuzumab and/or pertuzumab; assay type: in vivo, CB-17/Icr-Prkdc^scid mice; conditions: day 42, zongertinib 20 mg/kg qdx42 p.o., trastuzumab 20 mg/kg q7dx6 i.p., pertuzumab 20 mg/kg q7dx6 i.p., alone or combined
Experimental: The study is performed in human NSCLC cell line Calu-3 grown as subcutaneous xenografts in CB-17/Icr-Prkdc^scid mice. Day 1 was the first day, day 42 the last day of treatment and final day of analysis.
Calu-3 is a HER2-overexpressing human NSCLC cell line that can be obtained from ATCC (lot 614492062). Cells are cultured in T75, T175 and 5-Layer tissue culture flasks at 37° C. and 5% CO2. The medium used is EMEM (Lonza BE12-662F) supplemented with 10% FCS (Cytiva HyClone Characterized FBS, SH30084.03n), 2 mM Glutamax (Gibco 35050-038), 0.5 mM sodium pyruvate (Sigma S8636). Cultures are split once weekly with a ratio of 1:1.5-1:2.
To establish subcutaneous tumors, Calu-3 cells are harvested by centrifugation, washed and resuspended in PBS+5% FCS at 7×10^7 cells/ml. 50 μl cell suspension containing 3.5×10^6 cells is injected subcutaneously into the right flank of mice (1 site per mouse).
Mice in the control group are treated with vehicle, i.e.: • (i) 0.5% Natrosol, administered once daily for the duration of the treatment intragastrally by gavage needle with a volume of 10 ml/kg body weight; and • (ii) saline (0.9%), administered once every week intraperitoneally with a volume of 10 ml/kg.
Tumor volumes and side effects are monitored as described in Example 1 (see paragraph 1.1.6).
as §1

CCCCCOC(=O)Nc1nc(=O)n([C@@H]2O[C@H](C)[C@@H](O)[C@H]2O)cc1F [Capecitabine, capecitabine, reference compound]
Regressions >30% ([1]; day 21, tumors regressed/total (partial response), zongertinib 10 mg/kg qdx21 p.o., capecitabine 400 mg/kg qdx21 p.o., trastuzumab 20 mg/kg q7dx3 i.p., alone or combined): 0/8
TGI ([1]; day 21, zongertinib 10 mg/kg qdx21 p.o., capecitabine 400 mg/kg qdx21 p.o., trastuzumab 20 mg/kg q7dx3 i.p., alone or combined): 106%
effect on tumor growth (median tumor volumes over time) ([1]; zongertinib 10 mg/kg qdx21, capecitabine 400 mg/kg qdx21, trastuzumab 20 mg/kg q7dx3, alone or triple combination): delayed tumor growth but did not shrink tumors

CC[C@@]1(O)C(=O)OCc2c1cc1n(c2=O)Cc2c-1nc1cc(F)c(C)c3c1c2[C@@H](NC(=O)COCNC(=O)CNC(=O)[C@H](Cc1ccccc1)NC(=O)CNC(=O)CNC(=O)CCCCCN1C(=O)C=CC1=O)CC3 [deruxtecan, reference compound] ({Hexanoyl(6-maleimido)}-GGFG[NHCH2OCH2CO]-Exatecan)
sensitivity (dose response, cell viability) [2]: sensitive
sensitivity (dose response, cell viability) [3]: resistant

pertuzumab [reference compound]
Regressions >30% ([4]; tumors regressed/total (partial response)): 0/10
TGI [4]: 89%
